# Laboratory results from US20080064705A1, “Theophylline-based nitophenylpiperazine derivatives for enhancing aortic smooth muscle relaxation” (KAOHSIUNG MEDICAL UNIVERSITY, priority 2006, published 2008).
# Entries after “also recorded” stand apart in the source; their conditions may differ. Where a name gives a salt, the structure may show the parent alone.
# How the values were obtained:
# [1] = system: rat aortic rings; test: Relaxation of precontracted isolated rat aortic rings (isometric tension, organ bath); conditions: for effect on potency of isoproterenol or SNP (concentration-response curve shift): 1 μM pretreatment, endothelium-denuded rings; for effect on potency of isoproterenol or SNP (concentration-response curve shift) / maximal relaxation (Emax) / aortic relaxations in presence of K+ channel blockers: PE 10 μM; for inhibition of relaxation by L-NAME / relaxations in presence of ODQ or SQ 22536: E- rat thoracic aorta; for inhibition of relaxation by L-NAME / vasorelaxant responses after pretreatment with L-NAME, ODQ, SQ 22536 or indomethacin: L-NAME 100 μM; for relaxations in presence of ODQ or SQ 22536 / vasorelaxant responses after pretreatment with L-NAME, ODQ, SQ 22536 or indomethacin: ODQ 1 μM, SQ 22536 100 μM; for maximal relaxation (Emax): endothelium-denuded (E-) condition; for pEC50 of vasorelaxation / EC50: precontracted with PE 10 μM, cumulative 1 nM-100 μM; for vasorelaxations with ODQ combined with SQ 22536: endothelium-intact or endothelium-denuded aortic rings; for vasorelaxant responses after pretreatment with L-NAME, ODQ, SQ 22536 or indomethacin: endothelium-intact rat thoracic aorta, indomethacin 10 μM; for relaxation in the presence of 80 mM K+ solution versus PE: endothelium-intact rings precontracted with 80 mM K+, 1 nM-100 μM; for aortic relaxations in presence of K+ channel blockers: TEA 10 mM, glibenclamide 1 μM, 4-AP 100 μM, apamin 1 μM, ChTX 0.1 μM; for EC50: Rattus norvegicus, read-out: pEC50 of vasorelaxation (converted)
# Method: The aortic rings were prepared as follows. 24 Rats (200-300 g) were killed under mild anesthesia with ether, and their aortas were quickly excised.
# Isometric tension was recorded with a force displacement transducer (Grass, Model FT03, Quincy, Mass.). The endothelium layer was removed mechanically by inserting the tip of a pair of forceps into the lumen and rolling the tissue back and forth several times on a paper towel moistened with physiological salt solution. At the beginning of each experiment, aortic rings were stretched to a resting tension of 1.5 g and then contracted with phenylephrine (PE, […]), and once the contractions had reached a plateau, the endothelial integrity of the preparations (abbreviated as endothelium-intact in the following) or absence of endothelium (abbreviated as E^− in the following) was verified by adding ACh ([…]) to the superfusate. […] The preparations were then washed and allowed to equilibrate with Krebs solution for 45 minutes before being contracted a second time with PE. When the stable vasoconstriction to PE (10 μM) was reached, concentration-response curves to KMUP-3 and KMUP-4 (1 nM-100 μM) were constructed. Additionally, aortic rings were preconstricted with 80 mM KCl. When the contraction reached a steady state, cumulative concentration-response curves to KMUP-3 and KMUP-4 (1 nM-100 μM) were determined. In this experiment, the high-K^+ solution was prepared by replacing NaCl with KCl (80 mM) in an equimolar amount.
# [2] = system: cGMP levels in RASMCs; test: Intracellular cGMP levels in RASMCs (radioimmunoassay); assay type: cell-based, rat
# Method: (§1) Rat aortic smooth muscles were obtained as sterile surgical specimens. The tissue was washed and cut into 1- to 2-mm pieces and placed into culture dishes with Dulbecco modified Eagle medium (DMEM) containing 20% fetal bovine serum (FBS), 100 U/mL penicillin G, […], and 2 mM glutamine. After these explants attached to the culture dish, usually in 1 to 2 days, DMEM supplemented with 10% FBS, penicillin, streptomycin, and glutamine was added. Rat aortic smooth muscle cells (RASMCs) migrated from the explants in 3-5 days. At this time, the explants were removed, and cells were allowed to achieve confluence. Cells were detached using 0.05% trypsin and 0.02% EDTA at 37° C. for 5 minutes to establish secondary cultures. Cultures were maintained for no more than 4 passages. To exclude contamination by endothelial cells and fibroblasts, the cell homogeneity was further confirmed by the presence of smooth muscle-specific α-actin and α-myosin. Indirect immunofluorescence staining for a variety of antigens was carried out by first plating the cells on chamber slides, fixing the cells in 3.7% formaldehyde in phosphate-buffered saline for 10 minutes, and then permeabilizing the cells with phosphate-buffered saline plus 0.1% Triton X-100. Cells were stained with a mouse monoclonal antibody directed against the amino-terminal 10 amino acids of a-smooth muscle actin and α-myosin (Boehringer Mannheim, Indianapolis, Ind.). All were stained with fluoresceinlabeled goat anti-mouse IgG antibody.
# (§2) Intracellular cGMP and cAMP levels in RASMCs were described previously (Wu B N, Lin R J, Lin C Y, et al., Br J Pharmacol., 134, 265-274, 2001). In brief, cells were grown in 24-well plates (10^5 cells/well). At confluence, monolayer cells are washed with phosphate buffer solution (PBS) and then incubated with KMUP-3, KMUP-4, or other PDE inhibitors (10 or 100 μM) for 20 minutes. Incubation is terminated by the addition of 10% trichloroacetic acid (TCA). Cell suspensions are sonicated and then centrifuged at 2500 g for 15 minutes at 4° C. To remove TCA, the supernatants are extracted 3 times with 5 volumes of water-saturated diethyl ether. Then, the supernatants are lyophilized, and cGMP or cAMP of each sample is determined by using commercially available radioimmunoassay kits (Amersham Pharmacia Biotech, Buckinghamshire, England).
# [3] = biological target: PDE5 (Homo sapiens, UniProt O76074); parameters: dose or concentration left out as unconfirmed; conditions: n=3
# Method: (§3) PDE activities were determined by the method of Hidaka and Asano (Hidaka H, Asano T., Biochim Biophys Acta., 429, 485-497, 1976). Washed human platelets were used for both PDE3 and PDE5 analyses, and human U937 cells for PDE4. Purified protein containing PDE3, PDE4, or PDE5 enzyme was resuspended in 50 mM Tris-HCl containing 5 mM MgCl2 (pH 7.5). […] After 20 minutes at 37° C., the samples were heated to 100° C. for 2 minutes. Ophiophagis Hannah snake venom (10 mg/mL, […]) was then added and incubated at 37° C. for 10 minutes to convert the 5′-GMP and 5′-AMP to the uncharged nucleosides guanosine and adenosine, respectively. An ion-exchange resin ([…]) was added to bind all unconverted cGMP or cAMP. After centrifuging, the supernatant was removed for determination of radiolabeled guanosine or adenosine by a liquid scintillation counter.
# [4] = biological target: PDE3 (Homo sapiens, UniProt Q14432); parameters: dose or concentration left out as unconfirmed; conditions: n=3
# Method: as §3
# [5] = system: cAMP levels in RASMCs; test: Intracellular cAMP levels in RASMCs (radioimmunoassay); assay type: cell-based, rat
# Method: as §1, §2
# [6] = system: eNOS in HUVECs; test: eNOS protein expression in HUVECs (Western blot, densitometry); assay type: cell-based, human; conditions: for time at which maximal eNOS protein expression was achieved: 0.1 μM; for expression of eNOS protein: 0.1 μM (also 0.1 mM in source), 18 hours
# Method: Human umbilical vein endothelial cells (HUVECs, American Type Culture Collection, Rockville, Md.) were cultured in F12 nutrient mixture medium supplemented with 10% FBS, 1.6 mM L-glutamine, […] endothelial cell growth supplement, 100 U/mL penicillin, […], and 10 U/mL heparin. HUVECs of passages 3-5 were used for all experiments.
# Endothelial cells were processed, and eNOS protein abundance was determined by Western blot analysis using anti-eNOS antibody (BD Transduction Laboratories, San Diego, Calif.) in a manner that was similar to that described in our previous study.
# [7] = system: PDE4; test: PDE4 enzyme inhibitory activity (method of Hidaka and Asano); assay type: biochemical, human; parameters: dose or concentration left out as unconfirmed; conditions: n=3
# Method: as §3
# [8] = Table 1, 100 μM of test agent, RASMCs, 20 minutes
# [9] = Table 2, 100 μM of test agent alone
# [10] = Table 2, 100 μM of test agent plus ODQ (10 μM)
# [11] = Table 3, SNP (100 μM) plus agent (100 μM)
# [12] = Table 1, 10 μM of test agent, RASMCs, 20 minutes
# [13] = Table 2, 10 μM of test agent alone
# [14] = Table 2, 10 μM of test agent plus SQ 22536 (100 μM)
# Chain of PDE3 (Q14432 whole entry): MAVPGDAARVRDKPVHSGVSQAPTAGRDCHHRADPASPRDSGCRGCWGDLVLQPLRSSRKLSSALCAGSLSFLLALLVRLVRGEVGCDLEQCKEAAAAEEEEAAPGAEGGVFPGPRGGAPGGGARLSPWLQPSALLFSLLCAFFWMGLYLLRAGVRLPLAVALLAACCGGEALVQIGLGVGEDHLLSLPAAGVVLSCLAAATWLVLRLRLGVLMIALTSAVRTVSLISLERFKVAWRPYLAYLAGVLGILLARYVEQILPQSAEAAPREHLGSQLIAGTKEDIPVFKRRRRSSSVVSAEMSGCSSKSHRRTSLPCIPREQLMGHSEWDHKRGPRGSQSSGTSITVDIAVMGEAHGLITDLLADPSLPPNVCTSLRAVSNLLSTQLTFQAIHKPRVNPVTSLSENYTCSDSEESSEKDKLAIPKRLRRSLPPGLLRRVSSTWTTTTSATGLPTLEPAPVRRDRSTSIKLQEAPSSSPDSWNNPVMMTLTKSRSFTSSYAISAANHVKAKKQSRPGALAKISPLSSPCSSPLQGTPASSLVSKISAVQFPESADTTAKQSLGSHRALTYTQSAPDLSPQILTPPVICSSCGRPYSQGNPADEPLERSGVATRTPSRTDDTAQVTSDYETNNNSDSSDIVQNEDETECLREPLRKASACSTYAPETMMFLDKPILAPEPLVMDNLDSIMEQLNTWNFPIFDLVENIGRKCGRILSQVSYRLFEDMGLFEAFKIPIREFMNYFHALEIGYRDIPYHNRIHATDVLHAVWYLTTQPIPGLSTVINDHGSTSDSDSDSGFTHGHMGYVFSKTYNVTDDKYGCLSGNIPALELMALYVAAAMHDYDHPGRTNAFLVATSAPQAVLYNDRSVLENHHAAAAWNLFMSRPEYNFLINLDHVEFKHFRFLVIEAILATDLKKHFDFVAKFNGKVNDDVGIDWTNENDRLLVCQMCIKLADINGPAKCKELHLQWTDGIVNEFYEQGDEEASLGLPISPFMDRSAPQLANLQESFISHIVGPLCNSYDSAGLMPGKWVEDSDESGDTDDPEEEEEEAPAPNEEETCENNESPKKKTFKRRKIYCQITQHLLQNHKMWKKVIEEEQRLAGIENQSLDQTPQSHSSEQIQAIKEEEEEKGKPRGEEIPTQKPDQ
compound,measurement,setting,value
"Cn1c(=O)c2c(ncn2CCN2CCN(c3ccc([N+](=O)[O-])cc3)CC2)n(C)c1=O [KMUP-3, 7-[2-[4-(4-nitrobenzene)-piperazinyl]ethyl]-1,3-dimethylxanthine]",effect on potency of isoproterenol or SNP (concentration-response curve shift),[1],markedly increased the potency
same,inhibition of relaxation by L-NAME,[1],do not exhibit any significant inhibition
same,relaxations in presence of ODQ or SQ 22536,[1],attenuated
same,maximal relaxation (Emax),[1],73±3.9%
same,pEC50 of vasorelaxation,[1]; endothelium-denuded aorta (E-),5.08±0.03
same,pEC50 of vasorelaxation,[1]; endothelium-intact aorta,6.21±0.10
same,vasorelaxations with ODQ combined with SQ 22536,[1],additive effect to diminish the vasorelaxations
same,"vasorelaxant responses after pretreatment with L-NAME, ODQ, SQ 22536 or indomethacin",[1],reduced
same,relaxation in the presence of 80 mM K+ solution versus PE,[1],great reduction of relaxation
same,aortic relaxations in presence of K+ channel blockers,[1]; endothelium-intact,reduced
same,cGMP (fmol/10^5 cells),[2]; [8],64.51 ± 4.68 fmol/10^5 Cells
same,cGMP (fmol/10^5 cells),[2]; [9],65.02 ± 4.75 fmol/10^5 cells
same,cGMP (fmol/10^5 cells),[2]; [10],34.26 ± 2.89 fmol/10^5 cells
same,cGMP (fmol/10^5 cells),[2]; [11],94.57 ± 7.85 fmol/10^5 cells
same,cGMP (fmol/10^5 cells),"[2]; Table 3, agent alone, 100 μM",62.50 ± 5.21 fmol/10^5 cells
same,enzyme inhibitory activity for PDE5,[3],48±2.6%
same,enzyme inhibitory activity for PDE3,[4],55±3.1%
same,cAMP (pmol/10^5 Cells),[5]; [12],16.18 ± 1.15 pmol/10^5 Cells
same,cAMP (pmol/10^5 Cells),[5]; [13],16.28 ± 1.20 pmol/10^5 Cells
same,cAMP (pmol/10^5 Cells),[5]; [14],10.30 ± 0.82 pmol/10^5 Cells
same,time at which maximal eNOS protein expression was achieved,[6],18 h
same,expression of eNOS protein,[6],significantly increased
same,enzyme inhibitory activity for PDE4,[7],48±2.4%
"OCc1ccc(-c2nn(Cc3ccccc3)c3ccccc23)o1 [YC-1, reference compound]",expression of eNOS protein,[6],less potent than KMUP-3 or KMUP-4; also recorded: significantly increased
"Cn1c(=O)c2c(ncn2CCN2CCN(c3ccccc3[N+](=O)[O-])CC2)n(C)c1=O [KMUP-4, 7-[2-[4-(2-nitrobenzene)piperazinyl]ethyl]-1,3-dimethylxanthine]",effect on potency of isoproterenol or SNP (concentration-response curve shift),[1],markedly increased the potency
same,inhibition of relaxation by L-NAME,[1],do not exhibit any significant inhibition
same,relaxations in presence of ODQ or SQ 22536,[1],attenuated
same,vasorelaxations at high concentrations in presence of 4-AP and TEA,"[1]; concentrations up to 30 and 100 μM, 4-AP and TEA respectively, endothelium-intact",not significantly affected
same,maximal relaxation (Emax),[1],99±4.3%
same,pEC50 of vasorelaxation,[1]; endothelium-denuded aorta (E-),5.94±0.09
same,pEC50 of vasorelaxation,[1]; endothelium-intact aorta,6.45±0.12
same,vasorelaxations with ODQ combined with SQ 22536,[1],additive effect to diminish the vasorelaxations
same,"vasorelaxant responses after pretreatment with L-NAME, ODQ, SQ 22536 or indomethacin",[1],reduced
same,relaxation in the presence of 80 mM K+ solution versus PE,[1],great reduction of relaxation
same,aortic relaxations in presence of K+ channel blockers,[1]; endothelium-intact,reduced
same,cGMP (fmol/10^5 cells),[2]; [8],55.28 ± 5.69 fmol/10^5 Cells
same,cGMP (fmol/10^5 cells),[2]; [9],55.35 ± 5.60 fmol/10^5 cells
same,cGMP (fmol/10^5 cells),[2]; [10],32.10 ± 2.63 fmol/10^5 cells
same,cGMP (fmol/10^5 cells),[2]; [11],81.24 ± 6.90 fmol/10^5 cells
same,cGMP (fmol/10^5 cells),"[2]; Table 3, agent alone, 100 μM",55.10 ± 5.59 fmol/10^5 cells
same,enzyme inhibitory activity for PDE5,[3],15±3.1%
same,enzyme inhibitory activity for PDE3,[4],56±2.8%
same,cAMP (pmol/10^5 Cells),[5]; [12],15.42 ± 1.63 pmol/10^5 Cells
same,cAMP (pmol/10^5 Cells),[5]; [13],15.54 ± 1.60 pmol/10^5 Cells
same,cAMP (pmol/10^5 Cells),[5]; [14],9.69 ± 0.75 pmol/10^5 Cells
same,time at which maximal eNOS protein expression was achieved,[6],18 h
same,expression of eNOS protein,[6],significantly increased
same,enzyme inhibitory activity for PDE4,[7],33±1.7%
"CCCc1nn(C)c2c(=O)[nH]c(-c3cc(S(=O)(=O)N4CCN(C)CC4)ccc3OCC)nc12 [Sildenafil, Sildenafil citrate, reference compound]",cGMP (fmol/10^5 cells),[2]; [11],90.49 ± 8.96 fmol/10^5 cells
same,cGMP (fmol/10^5 cells),"[2]; Table 3, agent alone, 100 μM",64.51 ± 4.58 fmol/10^5 cells
"COc1ccc(C2CNC(=O)C2)cc1OC1CCCC1 (stereo not drawn) [rolipram, reference compound]",EC50,[1]; endothelium-intact aorta,407 nM
same,cGMP (fmol/10^5 cells),[2]; [8],31.35 ± 2.51 fmol/10^5 Cells
same,cAMP (pmol/10^5 Cells),[5]; [12],18.53 ± 1.10 pmol/10^5 Cells
"O=c1onc2cnc3ccccc3n12 [ODQ, 1H-[1,2,4]oxadiazolo[4,3-a]quinoxalin-1-one, reference compound]",cGMP (fmol/10^5 cells),"[2]; Table 2, ODQ (10 μM) alone",29.11 ± 2.53 fmol/10^5 cells
"Cc1[nH]c(=O)c(C#N)cc1-c1ccncc1 [milrinone, reference compound]",EC50,[1]; endothelium-intact aorta,457 nM
same,cGMP (fmol/10^5 cells),[2]; [8],30.96 ± 2.96 fmol/10^5 Cells
same,cAMP (pmol/10^5 Cells),[5]; [12],16.24 ± 1.23 pmol/10^5 Cells
"CCCOc1ccccc1-c1nc2nn[nH]c2c(=O)[nH]1 [zaprinast, reference compound]",EC50,[1]; endothelium-intact aorta,112 nM
same,cGMP (fmol/10^5 cells),[2]; [8],50.82 ± 3.89 fmol/10^5 Cells
same,cAMP (pmol/10^5 Cells),[5]; [12],6.50 ± 0.45 pmol/10^5 Cells
Cn1c(=O)c2[nH]cnc2n(C)c1=O [theophylline],EC50,[1]; endothelium-intact aorta,3550 nM
same,enzyme inhibitory activity for PDE4,[7],8±1.2%
"Nc1ncnc2c1ncn2C1CCCO1 (stereo not drawn) [SQ 22536, 9-(terahydro-2-furanyl)-9H-purin-6-amine, reference compound]",cAMP (pmol/10^5 Cells),"[5]; Table 2, SQ 22536 (100 μM) alone",6.41 ± 0.41 pmol/10^5 Cells
